Data on 1 molecule can be found in US20250241918A1, “NOVEL USE OF PYRAZOLOPYRIMIDINE COMPOUND” (HEFEI YOUYUAN PHARMACEUTICAL CO., LTD., priority 2022, published 2025).

In experiment [1] the test system is adjuvant-induced arthritis model rats. Put plainly: Adjuvant-induced rat arthritis model. The settings on record: Day 21. The experiment is classed as in vivo, Sprague-Dawley (SD) rats. As to the method:
Experimental animals: Fifty male Sprague-Dawley (SD) rats weighing 180+20 g (provided by Qinglongshan Animal Breeding Center, license number SCXK(Su) 2017-0001) were fed with conventional pellet food (Jiangsu Xietong Biology Co., Ltd.) and housed in a clean animal facility. The rats were housed under a 12 h dark/12 h light cycle with free access to food and water. The temperature was maintained between 20° C. to 26° C., while the relative humidity ranged from 40% to 70%. […] Each group of 10 animals was administered QD for a continuous period of 21 days. […]
Paw swelling measurement: 1) the volume of right hind paw for the rats in each group was measured and recorded using a plethysmometer for paw volume before administration, which was used as the baseline value before modeling; 2) the volume of the rats' paw was measured at the end of administration (Day 21), which was used as the secondary value; 3) the swelling volume of the rats' paw was calculated according to the following formula: […]
The arthritis index scores were determined as following: at the end of administration (Day 21), rats in each group were evaluated according to the scoring standard described in Table 5. […]

Experiment [2] deals with rat colitis model induced by rectal administration of DNBS. The experiment can be described thus: Rat colitis induced by enema administration of DNBS. The format is in vivo, Wister rats. The settings on record: 20 mg/kg p.o. QD, day -2 to 6 (G6); DNBS colitis rats; comparable to positive control group. As to the method: Sixty male Wister rats (purchased from Beijing Vital River Laboratory Animal Technology Co., Ltd.) were randomly divided into six groups, with 10 rats in each group: G1 was the blank control group; G2-G6 were the rat colitis model groups induced by rectal administration of DNBS solution (Tokyo Chemical Industry Co., Ltd., 50 mg/mL DNBS dissolved in 30% ethanol). Various animals were administered with drugs starting from two days before colitis induced by DNBS, and the administration schedules were shown in Table 3 below.
The induction of colitis was performed as follows. The rats were fasted for 40 h before administration, and were subcutaneously injected with 5% glucose saline ([…], once a day) during the fast. On day 0, the fasted rats were anesthetized using Zoletil (intraperitoneal injection, 25 mg/kg, purchased from a pharmacy) and xylazine (intraperitoneal injection, 5 mg/kg, purchased from Sigma-Aldrich). In G2-G6 model groups, colitis was induced in rats by inserting a catheter from the anus into the left colic flexure (about 8 cm away from the anus) and administrating DNBS (0.5 mL per rat) through enema administration. The G1 blank control group was administered with 30% ethanol via enema using the same method. In order to avoid the reflux of enema fluid, animals with enema administration were kept in a head-down position for 15 mins, and then maintained in the Trendelenburg position until waking up.
During the administration period, the body weights of rats in all groups were recorded every day. Six days later, the animals were euthanized and the colorectal tissues were collected. The ulcer area of the colorectum, as well as the degrees of adhesion, intestinal obstruction, ulceration, and intestinal wall thickening, were measured. The pathological condition of the intestinal wall was evaluated. The conditions of colon damage was evaluated according to Table 4.
If the ulcer is irregular in shape, it can be considered as a rectangle, and then the length and width were measured to evaluate the ulcer area. Ulcer area (cm^2)=ulcer length (cm)×ulcer width (cm).

SMILES strings stand for the structures.

On to `CN(C)CC(=O)N1CCC[C@@H](n2nc(-c3ccc(Oc4ccccc4)cc3)c3c(N)ncnc32)C1` [Compound 22, (R)-1-(3-(4-amino-(4-phenoxyphenyl)-1H-pyrazolo[3,4-d]pyrimidin-1-yl)piperidin-1-yl)-2-(dimethylamino) ethanone], for which, in experiment [1] (10 mg/kg orally QD), the paw swelling entry was “significantly alleviated paw swelling”. The paw swelling entry in experiment [1] (30 mg/kg orally QD) is “significantly alleviated paw swelling”. In experiment [2], the “animal body weights vs G2 model group” value is recorded as “significantly lower than those for the G2 group”; the “scores for the degrees of adhesion, intestinal obstruction, ulceration, intestinal wall thickening vs G2 model group” value is reported as “significantly lower than those for the G2 group”; the “ulcer areas of colorectal tissues vs G2 model group” value is listed as “significantly lower than those for the G2 group”.
